Experiments:
CCRF-CEM = assay: Growth inhibition of human CCRF-CEM cells assessed as cell growth at 10 uM after 48 hrs by sulforhodamine B assay relative to control; assay type: functional; conditions: read-out: Activity
HL-60(TB) = assay: Growth inhibition of human HL-60(TB) cells assessed as cell growth at 10 uM after 48 hrs by sulforhodamine B assay relative to control; assay type: functional; conditions: HL-60, 48 h, read-out: Activity
[1] = Growth inhibition of human MOLT4 cells assessed as cell growth at 10 uM after 48 hrs by sulforhodamine B assay relative to control; assay type: functional; conditions: MOLT-4, 48 h, read-out: Activity
SR = assay: Growth inhibition of human SR cells assessed as cell growth at 10 uM after 48 hrs by sulforhodamine B assay relative to control; assay type: functional; conditions: read-out: Activity
A549 = assay: Growth inhibition of human A549/ATCC cells assessed as cell growth at 10 uM after 48 hrs by sulforhodamine B assay relative to control; assay type: functional; conditions: A549, 48 h, read-out: Activity
NCI-H322M = assay: Growth inhibition of human NCI-H322M cells assessed as cell growth at 10 uM after 48 hrs by sulforhodamine B assay relative to control; assay type: functional; conditions: read-out: Activity
NCI-H460 = assay: Growth inhibition of human NCI-H460 cells assessed as cell growth at 10 uM after 48 hrs by sulforhodamine B assay relative to control; assay type: functional; conditions: NCI-H460, 48 h, read-out: Activity
COLO 205 = assay: Growth inhibition of human COLO205 cells assessed as cell growth at 10 uM after 48 hrs by sulforhodamine B assay relative to control; assay type: functional; conditions: COLO 205, 48 h, read-out: Activity
[2] = Growth inhibition of human HCC2998 cells assessed as cell growth at 10 uM after 48 hrs by sulforhodamine B assay relative to control; assay type: functional; conditions: HCC 2998, 48 h, read-out: Activity
[3] = Growth inhibition of human HCT15 cells assessed as cell growth at 10 uM after 48 hrs by sulforhodamine B assay relative to control; assay type: functional; conditions: HCT-15, 48 h, read-out: Activity
HT-29 [4] = assay: Growth inhibition of human HT-29 cells assessed as cell growth at 10 uM after 48 hrs by sulforhodamine B assay relative to control; assay type: functional; conditions: HT-29, 48 h, read-out: Activity
KM12 = assay: Growth inhibition of human KM12 cells assessed as cell growth at 10 uM after 48 hrs by sulforhodamine B assay relative to control; assay type: functional; conditions: KM12, 48 h, read-out: Activity
SF-268 = assay: Growth inhibition of human SF268 cells assessed as cell growth at 10 uM after 48 hrs by sulforhodamine B assay relative to control; assay type: functional; conditions: SF-268, 48 h, read-out: Activity
[5] = Growth inhibition of human SF539 cells assessed as cell growth at 10 uM after 48 hrs by sulforhodamine B assay relative to control; assay type: functional; conditions: SF-539, 48 h, read-out: Activity
SNB-19 = assay: Growth inhibition of human SNB19 cells assessed as cell growth at 10 uM after 48 hrs by sulforhodamine B assay relative to control; assay type: functional; conditions: SNB-19, 48 h, read-out: Activity
U-251 = assay: Growth inhibition of human U251 cells assessed as cell growth at 10 uM after 48 hrs by sulforhodamine B assay relative to control; assay type: functional; conditions: U-251, 48 h, read-out: Activity
Malme-3M = assay: Growth inhibition of human MALME-3M cells assessed as cell growth at 10 uM after 48 hrs by sulforhodamine B assay relative to control; assay type: functional; conditions: read-out: Activity
MDA-MB-435 = assay: Growth inhibition of human MDA-MB-435 cells assessed as cell growth at 10 uM after 48 hrs by sulforhodamine B assay relative to control; assay type: functional; conditions: MDA-MB-435, 48 h, read-out: Activity
[6] = Growth inhibition of human UACC257 cells assessed as cell growth at 10 uM after 48 hrs by sulforhodamine B assay relative to control; assay type: functional; conditions: UACC-257, 48 h, read-out: Activity
IGROV-1 = assay: Growth inhibition of human IGROV1 cells assessed as cell growth at 10 uM after 48 hrs by sulforhodamine B assay relative to control; assay type: functional; conditions: IGROV-1, 48 h, read-out: Activity
[7] = Growth inhibition of human OVCAR4 cells assessed as cell growth at 10 uM after 48 hrs by sulforhodamine B assay relative to control; assay type: functional; conditions: OVCAR-4, 48 h, read-out: Activity
[8] = Growth inhibition of human NCI-ADR-RES cells assessed as cell growth at 10 uM after 48 hrs by sulforhodamine B assay relative to control; assay type: functional; conditions: read-out: Activity
SN12C = assay: Growth inhibition of human SN12C cells assessed as cell growth at 10 uM after 48 hrs by sulforhodamine B assay relative to control; assay type: functional; conditions: read-out: Activity
PC-3 = assay: Growth inhibition of human PC3 cells assessed as cell growth at 10 uM after 48 hrs by sulforhodamine B assay relative to control; assay type: functional; conditions: PC-3, 48 h, read-out: Activity
T47D = assay: Growth inhibition of human T47D cells assessed as cell growth at 10 uM after 48 hrs by sulforhodamine B assay relative to control; assay type: functional; conditions: read-out: Activity
HOP-62 = assay: Growth inhibition of human HOP62 cells after 48 hrs by sulforhodamine B assay; assay type: functional; conditions: HOP-62, 48 h
[9] = Growth inhibition of human HOP92 cells after 48 hrs by sulforhodamine B assay; assay type: functional; conditions: HOP-92, 48 h
HT-29 [10] = assay: Growth inhibition of human HT-29 cells after 48 hrs by sulforhodamine B assay; assay type: functional; conditions: HT-29, 48 h
[11] = Growth inhibition of human LOXIMVI cells after 48 hrs by sulforhodamine B assay; assay type: functional; conditions: LOX IMVI
MDA-MB-231 = assay: Growth inhibition of human MDA-MB-231 cells after 48 hrs by sulforhodamine B assay; assay type: functional; conditions: MDA-MB-231, 48 h
Rattus norvegicus = assay: Hepatotoxicity in rat assessed as SGPT level at 0.12 mg/kg, po after 12 days (reference value: 31.17 +/- 0.39 U/mL); assay type: toxicity, organism-based; design: dose 0.12 mg/kg, route oral; conditions: in vivo, 288 h
[12] = read-out: LC50 (the source's name)
[13] = read-out: pLC50 (the source's name) (converted)

`O=C1CS/C(=N\c2nc(-c3ccccc3Cl)cc(-c3ccc(Cl)cc3Cl)n2)N1` gave a growth at 10 µM (CCRF-CEM) of 85.9%, a growth at 10 µM (HL-60(TB)) of 96.1% and a growth at 10 µM [1] of 92%. The growth at 10 µM (SR) was 75.1%, the growth at 10 µM (A549) was 91.2% and the growth at 10 µM (NCI-H322M) was 94.9%. The growth at 10 µM (NCI-H460) was 103%, the growth at 10 µM (COLO 205) was 100% and the growth at 10 µM [2] was 101%. For the same compound, the growth at 10 µM [3] was 102%, the growth at 10 µM (HT-29 [4]) was 107% and the growth at 10 µM (KM12) was 97.7%. The growth at 10 µM (SF-268) was 92.2%, the growth at 10 µM [5] was 103% and the growth at 10 µM (SNB-19) was 101%. It also gave a growth at 10 µM (U-251) of 105%, a growth at 10 µM (Malme-3M) of 87.3% and a growth at 10 µM (MDA-MB-435) of 78.5%. It also gave a growth at 10 µM [6] of 107%, a growth at 10 µM (IGROV-1) of 98.2% and a growth at 10 µM [7] of 96.1%. For the same compound, the growth at 10 µM [8] was 98.1%, the growth at 10 µM (SN12C) was 98.5% and the growth at 10 µM (PC-3) was 83.8%. The growth at 10 µM (T47D) was 86.5%.

`O=C1N/C(=N/c2nc(-c3ccccc3Cl)cc(-c3ccc(Cl)cc3Cl)n2)S/C1=C/c1ccc(Cl)cc1` gave a growth at 10 µM (CCRF-CEM) of 75.5%, a growth at 10 µM (HL-60(TB)) of 87.1% and a growth at 10 µM [1] of 94.2%. For the same compound, the growth at 10 µM (SR) was 32.4%, the growth at 10 µM (A549) was 88.8% and the growth at 10 µM (NCI-H322M) was 78.1%. It also gave a growth at 10 µM (NCI-H460) of 87.2%, a growth at 10 µM (COLO 205) of 83.2% and a growth at 10 µM [2] of 102%. The growth at 10 µM [3] was 90%, the growth at 10 µM (HT-29 [4]) was 103% and the growth at 10 µM (KM12) was 79.8%. For the same compound, the growth at 10 µM (SF-268) was 90.9%, the growth at 10 µM [5] was 97.3% and the growth at 10 µM (SNB-19) was 93.4%. It also gave a growth at 10 µM (U-251) of 89.4%, a growth at 10 µM (Malme-3M) of 91.5% and a growth at 10 µM (MDA-MB-435) of 32.1%. The growth at 10 µM [6] was 93.2%, the growth at 10 µM (IGROV-1) was 82.3% and the growth at 10 µM [7] was 81.9%. For the same compound, the growth at 10 µM [8] was 90.1%, the growth at 10 µM (SN12C) was 91.5% and the growth at 10 µM (PC-3) was 79%. For the same compound, the growth at 10 µM (T47D) was 60.9%.

Work on `Nc1nc(-c2ccccc2Cl)cc(-c2ccc(Cl)cc2Cl)n1` yielded a growth at 10 µM (CCRF-CEM) of 57.5%, a growth at 10 µM (HL-60(TB)) of 51.4% and a growth at 10 µM [1] of 52.6%. It also gave a growth at 10 µM (SR) of 25.4%, a growth at 10 µM (A549) of 52.7% and a growth at 10 µM (NCI-H322M) of 89.5%. For the same compound, the growth at 10 µM (NCI-H460) was 49.8%, the growth at 10 µM (COLO 205) was 64.9% and the growth at 10 µM [2] was 83.6%. For the same compound, the growth at 10 µM [3] was 90.2%, the growth at 10 µM (HT-29 [4]) was 36.6% and the growth at 10 µM (KM12) was 53.8%. The growth at 10 µM (SF-268) was 65.9%, the growth at 10 µM [5] was 72.2% and the growth at 10 µM (SNB-19) was 78.2%. It also gave a growth at 10 µM (U-251) of 65%, a growth at 10 µM (Malme-3M) of 86.6% and a growth at 10 µM (MDA-MB-435) of 0.07%. The growth at 10 µM [6] was 93%, the growth at 10 µM (IGROV-1) was 74.7% and the growth at 10 µM [7] was 79.6%. The growth at 10 µM [8] was 79.8%, the growth at 10 µM (SN12C) was 79.6% and the growth at 10 µM (PC-3) was 74.2%. The growth at 10 µM (T47D) was 63.7%, the GI50 (HOP-62; read-out: GI50) was 8.21 µM and the CC50 (HOP-62; [12]) was > 100 µM. For the same compound, the TGI (HOP-62; read-out: TGI) was > 100 µM, the GI50 (HOP-62; read-out: pGI50 (converted)) was 8.13 µM and the CC50 (HOP-62; [13]) was > 100 µM. The TGI (HOP-62; read-out: pTGI) was > 100 µM, the GI50 ([9]; read-out: GI50) was 0.527 µM and the CC50 [9, 12] was > 100 µM. For the same compound, the TGI ([9]; read-out: TGI) was 7.62 µM, the GI50 ([9]; read-out: pGI50 (converted)) was 0.525 µM and the CC50 [9, 13] was > 100 µM. The TGI ([9]; read-out: pTGI (converted)) was 7.59 µM, the GI50 (HT-29 [10]; read-out: GI50) was 4.32 µM and the CC50 (HT-29 [10]; [12]) was > 100 µM. For the same compound, the TGI (HT-29 [10]; read-out: TGI) was 24.3 µM, the GI50 (HT-29 [10]; read-out: pGI50 (converted)) was 4.37 µM and the CC50 (HT-29 [10]; [13]) was > 100 µM. For the same compound, the TGI (HT-29 [10]; read-out: pTGI (converted)) was 24.5 µM, the GI50 ([11]; read-out: GI50) was 4.89 µM and the CC50 [11, 12] was > 100 µM. The TGI ([11]; read-out: TGI) was > 100 µM, the GI50 ([11]; read-out: pGI50 (converted)) was 4.9 µM and the CC50 [11, 13] was > 100 µM. The TGI ([11]; read-out: pTGI) was > 100 µM, the GI50 (MDA-MB-231; read-out: GI50) was 9.3 µM and the CC50 (MDA-MB-231; [12]) was > 100 µM. The TGI (MDA-MB-231; read-out: TGI) was > 100 µM, the GI50 (MDA-MB-231; read-out: pGI50 (converted)) was 9.33 µM and the CC50 (MDA-MB-231; [13]) was > 100 µM. The TGI (MDA-MB-231; read-out: pTGI) was > 100 µM and the Activity (Rattus norvegicus) was 29.11 U/ml.

Source: ChEMBL document CHEMBL3286379, “Design and synthesis of pyrimidine molecules endowed with thiazolidin-4-one as new anticancer agents” (Eur J Med Chem, 2014)
